# Source: ChEMBL document CHEMBL3137667, “[Drug-induced liver injury; fourteenth updated edition of the bibliographic database of liver injuries and related drugs]” (Gastroenterol Clin Biol, 2004)
# What was measured:
# [1] = human, serum
# [2] = human
# [3] = human; remark: listed apart in the source
# [4] = human; remark: listed apart in the source
# [5] = human; remark: listed apart in the source
# [6] = Highest frequency of acute liver toxicity observed during clinical trials, expressed as a percentage. [column '% AIGUE' in source]; details: human
# [7] = human, serum, 4383 h
# [8] = human; remark: listed apart in the source
# [9] = human; remark: listed apart in the source
# [10] = human; remark: listed apart in the source
# [11] = Presence of at least one case with successful reintroduction. [column 'REINT' in source]; details: human
# [12] = human; remark: listed apart in the source
# [13] = human; remark: listed apart in the source
# [14] = Highest frequency of moderate liver toxicity observed during clinical trials, expressed as a percentage. [column '% BIOL' in source]; details: human
# [15] = Times to onset, minimal and maximal, observed in the indexed observations. [column 'DELAI' in source]; details: human
# [16] = human, serum; remark: listed apart in the source
# 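For Hepatotoxicity (association with vascular disease) in this document: count of indexed literature references reporting vascular liver injury in humans, e.g. peliosis hepatitis, hepatic veno-occlusive disease or Budd-Chiari syndrome.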
# 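For Hepatotoxicity (benign tumour) in this document: value is a count of indexed literature references citing a benign tumour confirmed by histopathology.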
# 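For Hepatotoxicity (choleostasis) in this document: human cholestatic liver injury, shown by histopathology or by peak ALT or AST elevation over alkaline phosphatase ratio below 2, value counts indexed literature reports.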
# 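For Hepatotoxicity (chronic liver disease) in this document: chronic liver injury confirmed by histopathology or persistently raised serum aminotransferase activity beyond 6 months, value given as the count of indexed literature references.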
# 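For Hepatotoxicity (cirrhosis) in this document: value is a count of indexed literature references reporting cirrhosis confirmed by histopathology.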
# 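For Hepatotoxicity (cytolytic) in this document: human cytolytic liver injury, shown by histopathology or by a ratio above 5 of peak ALT or AST elevation to alkaline phosphatase elevation, value counts indexed references.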
# 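For Hepatotoxicity (granulomatous hepatitis) in this document: value is a count of indexed literature references reporting granulomatous liver disease confirmed by histopathology.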
# 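For Hepatotoxicity (malignant tumour) in this document: malignant tumour confirmed by histopathology, value gives the count of indexed literature references reporting it.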
# 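For Hepatotoxicity (severe hepatitis) in this document: human clinical data: severe hepatitis, meaning potentially life-threatening liver failure or clinically observed cases, the value counts how many indexed literature references report it.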
# 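For Hepatotoxicity (steatosis) in this document: steatosis confirmed by histopathology, value is the count of indexed references.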
Molecule,Hepatotoxicity (moderate) [1],Hepatotoxicity (cytolytic) [2],Hepatotoxicity (granulomatous hepatitis) [3],Hepatotoxicity (cirrhosis) [4],Hepatotoxicity (malignant tumour) [5],Hepatotoxicity (acute) [6],Hepatotoxicity (chronic liver disease) [7],Hepatotoxicity (benign tumour) [8],Hepatotoxicity (choleostasis) [9],Hepatotoxicity (severe hepatitis) [10],Hepatotoxicity (successful reintroduction) [11],Hepatotoxicity (association with vascular disease) [12],Hepatotoxicity (steatosis) [13],Hepatotoxicity (moderate) [14],Hepatotoxicity (time to onset) [15],Hepatotoxicity (acute) [16],further results
CC[C@H](C)[C@H]1NC(=O)[C@@H](NC(=O)[C@@H](CC(C)C)N(C)C(=O)[C@@H]2CCCN2C(=O)C(C)O)[C@@H](C)OC(=O)[C@H](Cc2ccc(OC)cc2)N(C)C(=O)[C@@H]2CCCN2C(=O)[C@H](CC(C)C)NC(=O)[C@@H](C)C(=O)[C@H](C(C)C)OC(=O)C[C@@H]1O (stereo not given in full) [DIDEMNIN B],3,0,0,0,0,5.3%,0,0,1,0,yes,0,0,32%,1 week,2,
Nc1cc(N2CCCCC2)nc(N)[n+]1[O-] [MINOXIDIL],5,0,0,0,0,0%,0,0,0,0,yes,0,0,4.3%,3 days - 1 year,0,
CC(=O)O[C@H]1CC[C@H]2[C@@H]3CC[C@H]4CC(=O)C=C(C)[C@]4(C)[C@H]3CC[C@]12C [METHENOLONE ACETATE],1,0,0,0,1,0%,0,1,0,0,yes,0,0,0%,1 month - 15 years,5,
CN(C)CCCn1c2c(c3ccccc31)CCCCCC2 [IPRINDOLE],1,,,0,0,,0,0,,,yes,0,0,,2 weeks - 1 month,6,Hepatotoxicity (cytolytic) ([2]; Liver): 1; Hepatotoxicity (granulomatous hepatitis) ([3]; Liver): 0; Hepatotoxicity (acute) ([6]; Liver): 0%; Hepatotoxicity (choleostasis) ([9]; Liver): 6; Hepatotoxicity (severe hepatitis) ([10]; Liver): 0; Hepatotoxicity (moderate) ([14]; Liver): 0%
NS(=O)(=O)c1cc2c(cc1Cl)NCNS2(=O)=O [HYDROCHLOROTHIAZIDE],2,3,0,0,0,0%,0,0,1,1,yes,0,0,2.4%,17 days - 14 months,4,
CN(C)C/C=C(/c1ccc(Br)cc1)c1cccnc1 [ZIMELDINE],9,3,2,0,0,6.6%,0,0,3,0,yes,0,0,20.5%,2 weeks - 2 months,4,
PENTOSAN POLYSULFATE SODIUM,5,1,0,0,0,0%,0,0,0,0,yes,0,0,75%,1 week - 2 weeks,1,
CCCN(CCC)S(=O)(=O)c1ccc(C(=O)O)cc1 [PROBENECID],0,1,1,0,0,0%,0,0,0,1,yes,0,0,0%,2 years,1,
C/C=C(/CC)C(=O)NC(N)=O,0,0,0,0,0,0%,0,0,0,0,yes,0,0,0%,3 weeks,1,
CN(C)CC[C@@H](c1ccc(Cl)cc1)c1ccccn1 [DEXCHLORPHENIRAMINE],0,1,0,0,0,,0,0,0,,yes,0,0,,9 days,1,Hepatotoxicity (acute) ([6]; Liver): 0%; Hepatotoxicity (severe hepatitis) ([10]; Liver): 0; Hepatotoxicity (moderate) ([14]; Liver): 0%
